Data reported in US11384075B2, “Quinolinone compounds” (Janssen Pharmaceutica NV, priority 2017, dated 2022).
Read-outs that look alike come from different tables or passages of the source.

Experiments:
[1] = target: T1, NIH/3T3 cells overexpressing FGFR3 WT-TACC3 fusion protein (Homo sapiens, UniProt P22607); assay: NIH/3T3 FGFR3 WT-TACC3 cell proliferation assay; assay type: cell-based; conditions: 72-hr incubation, CellTiter Glo, starting with 10 μM; read-out: NIH/3T3 FGFR3 WT-TACC3 CTG (IC50)
T1 construct: NIH/3T3 FGFR3 WT-TACC3 CTG (IC50); other: 72-hr incubation, CellTiter Glo, starting with 10 μM; fused on or other part: Q9Y6A5 (Transforming acidic coiled-coil-containing protein 3)
Description: NIH/3T3 FGFR3 WT-TACC3 Cell Proliferation Assay
(§1) In day 1, 90 μL of cell suspension (NIH/3T3 cells overexpressing FGFR3 WT-TACC3 fusion protein) (total 30,000 cells per well in growth medium (DMEM containing 1% Glutamax, 10% FBS and 1% Pen/Strep)) was seeded in a 96-well plate and then incubated overnight at 37° C. and 5% CO2. In day 2, 10 μL of growth medium containing 10-fold stock solution of testing compound was added into cell cultures (9 dose points with 4× serial dilution, starting with 10 μM, 0.1% DMSO final). After 72-hr incubation at 37° C. and 5% CO2, in day 5 a volume of 50 μL CellTiter Glo (CTG) reagent was added into cell-containing 96-well plate and the plate was incubated at room temperature for 10 minutes before RLUs (relative light unit) were measured on a microplate reader with luminescence detection module. The RLU value was normalized to survival % and concentration-response curve was plotted using Prism to calculate IC50 (M), pIC50 (−log IC50) and HillSlope value.

[2] = target: T2, human FGFR3 V555M enzyme (cytoplasmic domain carrying V555M mutation) (Homo sapiens, UniProt P22607, V555M); assay: FGFR3 V555M mobility shift assay (enzymatic assay); assay type: biochemical; conditions: 30 μM ATP, 45 minutes at 30° C., Caliper EZ reader II
T2 construct: human FGFR3 V555M enzyme (cytoplasmic domain carrying V555M mutation, from Carna Biosciences); purchased Carna Biosciences
Description: FGFR3 V555M Mobility Shift Assay (Enzymatic Assay)
(§2) In a final reaction volume of 25 μL, 0.04 ng/μL human FGFR3 V555M enzyme (cytoplasmic domain carrying V555M mutation, from Carna Biosciences) was incubated with 30 μM ATP, 1 μM FL-peptide 30 substrate and 250 nL of testing compound (1% DMSO final) in assay buffer (100 mM HEPES pH 7.4, 10 mM MgCl2, 0.003% Brij35, 1 mM DTT). After incubation for 45 minutes at 30° C. the reaction was stopped with 10 μL of 0.5M EDTA pH 8.0, and then 25 μL of reaction mixture was transferred to reading plate and measured on Caliper EZ reader II. The substrate-product conversion rate was used as raw data for normalization and concentration-response curve (10 dose points with 4× serial dilution, starting with 10 μM) was plotted using Prism to calculate IC50 (M), pIC50 (−log IC50) and HillSlope value.

[3] = test system: NIH/3T3 cells transfected with the same control vector; assay: NIH/3T3 mock cell proliferation assay (counter assay, general toxicity); assay type: cell-based; conditions: 72-hr incubation, CellTiter Glo, starting with 30 μM, counter assay for general toxicity, read-out: NIH/3T3 MOCK CTG (IC50)
Description: NIH/3T3 Mock Cell Proliferation Assay
as §1, with “cells transfected with the same control vector as in the above two proliferation assays)” for “cells overexpressing FGFR3 WT-TACC3 fusion protein)”, “with 3×” for “with 4×”, “with 30” for “with 10”, “μM, 0.3%” for “μM, 0.1%”

[4] = target: T3, human FGFR3 wild type enzyme (cytoplasmic domain) (Homo sapiens, UniProt P22607); assay: FGFR3 wild type mobility shift assay (enzymatic assay); assay type: biochemical; conditions: 75 μM ATP, 50 minutes at 30° C., Caliper EZ reader II
T3 construct: human FGFR3 wild type enzyme (cytoplasmic domain, from Carna Biosciences); purchased Carna Biosciences
Description: FGFR3 Wild Type Mobility Shift Assay (Enzymatic Assay)
as §2, with “FGFR3 wild type” for “FGFR3 V555M”, “(cytoplasmic domain,” for “(cytoplasmic domain carrying V555M mutation,”, “with 75” for “with 30”, “for 50” for “for 45”

[5] = target: T4, NIH/3T3 cells overexpressing FGFR3 V555M-TACC3 fusion protein (Homo sapiens, UniProt P22607, V555M, cells depend on it); assay: NIH/3T3 FGFR3 V555M-TACC3 cell proliferation assay; assay type: cell-based; conditions: 72-hr incubation, CellTiter Glo, starting with 10 μM; read-out: NIH/3T3 FGFR3 V555M-TACC3 CTG (IC50)
T4 construct: NIH/3T3 FGFR3 V555M-TACC3 CTG (IC50); other: 72-hr incubation, CellTiter Glo, starting with 10 μM; fused on or other part: Q9Y6A5 (Transforming acidic coiled-coil-containing protein 3)
Description: NIH/3T3 FGFR3 V555M-TACC3 Cell Proliferation Assay
as §1, with “V555M-TACC3” for “WT-TACC3”

T2 sequence (P22607 397-806 V555M limits assumed): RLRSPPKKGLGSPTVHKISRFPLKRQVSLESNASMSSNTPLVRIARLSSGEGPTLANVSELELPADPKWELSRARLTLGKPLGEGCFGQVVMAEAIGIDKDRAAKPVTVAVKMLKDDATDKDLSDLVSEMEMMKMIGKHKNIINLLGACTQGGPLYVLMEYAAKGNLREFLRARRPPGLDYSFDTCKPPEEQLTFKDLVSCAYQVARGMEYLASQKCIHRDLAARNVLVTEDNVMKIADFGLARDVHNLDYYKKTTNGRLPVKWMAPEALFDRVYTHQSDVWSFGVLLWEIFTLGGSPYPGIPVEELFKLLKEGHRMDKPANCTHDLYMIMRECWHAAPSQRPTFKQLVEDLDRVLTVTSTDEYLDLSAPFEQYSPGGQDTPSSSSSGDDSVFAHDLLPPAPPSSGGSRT
T3 sequence (P22607 397-806 limits assumed): as the sequence (P22607 397-806 V555M limits assumed) above, with M159V counted along it
T1 sequence (P22607 whole entry, change not shown, the tested form may be a part): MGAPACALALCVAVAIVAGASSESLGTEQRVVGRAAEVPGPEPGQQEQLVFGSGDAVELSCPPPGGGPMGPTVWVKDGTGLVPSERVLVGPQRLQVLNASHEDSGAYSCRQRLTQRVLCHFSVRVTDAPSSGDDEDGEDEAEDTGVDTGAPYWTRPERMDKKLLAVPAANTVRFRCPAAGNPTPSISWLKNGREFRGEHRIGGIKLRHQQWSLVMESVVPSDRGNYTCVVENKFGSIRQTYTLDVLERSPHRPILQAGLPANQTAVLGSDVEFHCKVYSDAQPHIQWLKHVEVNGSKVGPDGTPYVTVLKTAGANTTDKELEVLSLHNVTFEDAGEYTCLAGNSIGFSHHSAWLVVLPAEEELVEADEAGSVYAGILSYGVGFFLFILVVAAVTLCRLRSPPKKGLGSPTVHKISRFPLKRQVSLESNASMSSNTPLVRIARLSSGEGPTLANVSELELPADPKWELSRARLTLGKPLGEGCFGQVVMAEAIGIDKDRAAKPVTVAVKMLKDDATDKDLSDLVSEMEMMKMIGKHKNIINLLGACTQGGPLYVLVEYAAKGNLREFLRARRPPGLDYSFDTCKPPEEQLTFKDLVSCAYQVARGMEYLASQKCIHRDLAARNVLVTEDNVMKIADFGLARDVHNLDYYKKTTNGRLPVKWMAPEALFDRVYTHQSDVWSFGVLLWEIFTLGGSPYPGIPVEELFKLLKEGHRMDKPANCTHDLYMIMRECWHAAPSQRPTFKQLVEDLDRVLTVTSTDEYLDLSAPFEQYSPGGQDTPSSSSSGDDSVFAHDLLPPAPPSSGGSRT
T4 sequence (P22607 whole entry V555M, the tested form may be a part): as the sequence (P22607 whole entry, change not shown, the tested form may be a part) above, with V555M counted along it

GI50 [1]	IC50 [2]	IC50 [4]	GI50 [5]	SMILES	IC50 ([3]; Mus musculus, NIH3T3, 72 h)	IC50 [3]
25.7 nM	0.181 nM	0.843 nM	14.3 nM	CCCC(Nc1c(-c2nc3ccc(N4CCOCC4)cc3[nH]2)c(=O)[nH]c2ccccc12)c1ncccn1 (single isomer, unassigned) [Compound 31a, (S*)-3-(6-morpholino-1H-benzo[d]imidazol-2-yl)-4-((1-(pyrimidin-2-yl)butyl)amino)quinolin-2(1H)-one]	2920 nM	
454 nM	5.41 nM	19.9 nM	547 nM	COc1ccnc(C(C)Nc2c(-c3nc4ccc(N5CCOCC5)cc4[nH]3)c(=O)[nH]c3ccccc23)c1 (single isomer, unassigned) [Compound 48a, (S*)-4-((1-(4-methoxypyridin-2-yl)ethyl)amino)-3-(6-morpholino-1H-benzo[d]imidazol-2-yl)quinolin-2(1H)-one]	5670 nM	
8.34 nM	0.245 nM	0.591 nM	13.4 nM	CC(Nc1c(-c2nc3ccc(N4CCOCC4)c(F)c3[nH]2)c(=O)[nH]c2ccccc12)c1ncccn1 (single isomer, unassigned) [Compound 23a, (S*)-3-(7-fluoro-6-morpholino-1H-benzo[d]imidazol-2-yl)-4-((1-(pyrimidin-2-yl)-ethyl)amino)quinolin-2(1H)-one]	15300 nM	
113 nM	1.13 nM	2.15 nM	111 nM	COC(=O)C1CN(c2ccc3nc(-c4c(N[C@@H](C)c5ccccn5)c5ccccc5[nH]c4=O)[nH]c3c2)CCO1 (single isomer, unassigned) [Compound 61, (S*)-methyl 4-(2-(2-oxo-4-(((S)-1-(pyridin-2-yl)ethyl)amino)-1,2-dihydroquinolin-3-yl)-1H-benzo[d]imidazol-6-yl)morpholine-2-carboxylate]		1840 nM
19.9 nM	0.742 nM	1.17 nM	15.9 nM	Cc1cc(N2CCOCC2)cc2[nH]c(-c3c(N[C@@H](C)c4ncccn4)c4ccccc4[nH]c3=O)nc12 [Compound 46, (S)-3-(4-methyl-6-morpholino-1H-benzo[d]imidazol-2-yl)-4-((1-(pyrimidin-2-yl)ethyl)-amino)quinolin-2(1H)-one]	3910 nM	
56.8 nM	1.35 nM	1.35 nM	87.8 nM	C[C@H](Nc1c(-c2nc3cc(C(F)(F)F)c(NC4CCN(C)CC4)cc3[nH]2)c(=O)[nH]c2ccccc12)c1ccccn1 [Compound 18, (S)-3-(6-((1-methylpiperidin-4-yl)amino)-5-(trifluoromethyl)-1H-benzo[d]imidazol-2-yl)-4-((1-(pyridin-2-yl)ethyl)amino)quinolin-2(1H)-one]	733 nM	
25.3 nM	0.483 nM	1.17 nM	12.2 nM	CC(Nc1c(-c2nc3cc(C(F)(F)F)c(N4CCOCC4)cc3[nH]2)c(=O)[nH]c2ccccc12)c1ncccn1 (single isomer, unassigned) [Compound 45, (S*)-3-(6-morpholino-5-(trifluoromethyl)-1H-benzo[d]imidazol-2-yl)-4-((1-(pyrimidin-2-yl)ethyl)amino)quinolin-2(1H)-one]	12700 nM	
5.16 nM	1.03 nM	1.22 nM	4.82 nM	CC(Nc1c(-c2nc3cc(C(F)(F)F)c(N4CCN(C)CC4)cc3[nH]2)c(=O)[nH]c2ccccc12)c1ncccn1 (single isomer, unassigned) [Compound 25a, (S*)-3-(6-(4-methylpiperazin-1-yl)-5-(trifluoromethyl)-1H-benzo[d]imidazol-2-yl)-4-((1-(pyrimidin-2-yl)ethyl)amino)quinolin-2(1H)-one]	2260 nM	
16 nM	0.27 nM	0.67 nM	12.3 nM	Cc1c(N2CCOCC2)ccc2nc(-c3c(N[C@@H](C)c4ncccn4)c4ccccc4[nH]c3=O)[nH]c12 [Compound 47, (S)-3-(7-methyl-6-morpholino-1H-benzo[d]imidazol-2-yl)-4-((1-(pyrimidin-2-yl)-ethyl)amino)quinolin-2(1H)-one]	547 nM	
46.1 nM	0.358 nM	0.367 nM	66.5 nM	C[C@H](Nc1c(-c2nc3cc(C(F)(F)F)c(N(C)C4CCN(C)CC4)cc3[nH]2)c(=O)[nH]c2ccccc12)c1ccccn1 [Compound 19, (S)-3-(6-(methyl(1-methylpiperidin-4-yl)amino)-5-(trifluoromethyl)-1H-benzo[d]-imidazol-2-yl)-4-((1-(pyridin-2-yl)ethyl)amino)quinolin-2(1H)-one]	2450 nM	
19.8 nM	1.3 nM	1.83 nM	99.7 nM	COC(=O)C1CCN(c2ccc3nc(-c4c(N[C@@H](C)c5ccccn5)c5ccccc5[nH]c4=O)[nH]c3c2)CC1 [Compound 7, (S)-Methyl-1-(2-(2-oxo-4-((1-(pyridin-2-yl)ethyl)amino)-1,2-dihydroquinolin-3-yl)-1H-benzo[d]imidazol-6-yl)piperidine-4-carboxylate]	858 nM	
